Patent US20120244071A1, “FTY720 HALOGENATED DERIVATIVES” (Novartis AG, priority 2009, published 2012)
Where a name gives a salt, the structure may show the parent alone.

How the values were obtained:
S1P4 [1] = target: T1, S1P4 (Homo sapiens, UniProt O95977); test: GTPγS binding assay using S1P receptor/CHO membranes preparation; format: biochemical; parameters: expressed in transfected cells; membrane preparation; settings: [35S]GTPγS, CHO membranes, SPA
T1 sequence (O95977 1-384): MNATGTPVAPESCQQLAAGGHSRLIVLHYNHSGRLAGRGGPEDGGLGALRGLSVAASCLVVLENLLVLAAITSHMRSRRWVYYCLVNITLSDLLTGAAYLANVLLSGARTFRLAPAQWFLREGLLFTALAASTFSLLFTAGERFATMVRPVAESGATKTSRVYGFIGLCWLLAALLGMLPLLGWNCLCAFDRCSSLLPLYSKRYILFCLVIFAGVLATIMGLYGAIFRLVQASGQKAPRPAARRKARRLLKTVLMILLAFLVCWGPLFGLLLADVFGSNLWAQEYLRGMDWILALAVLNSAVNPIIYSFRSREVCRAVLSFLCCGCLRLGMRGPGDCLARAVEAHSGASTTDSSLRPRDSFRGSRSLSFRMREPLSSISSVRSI
Description: (§1) GTPγS Binding Assay Using S1P Receptor/CHO Membranes Preparation
(§2) The assay is based on the SPA technology (Amersham) and run in a 96 well format. Membranes are prepared from CHO cells stably expressing the S1P receptor of interest. Aliquots are stored at −80° C. Membranes (5-10 μg/well) resuspended in assay buffer (20 mM HEPES, pH7.4, 100 mM NaCl, 10 mM MgCl2 and 0.1% fat free BSA) containing 25 μg/mL Saponin and 10 μM GDP are mixed WGA-coated SPA beads (final conc. 1 mg/well). Ligand and [^35S]GTPγS (1250 Ci/mmol, final concentration 0.2 nM) are added and the plate sealed. After incubation at room temperature for 120 minutes under constant shaking the plates are centrifuged for 10 minutes at 1000×g to pellet the SPA beads. Then the plates are measured in a TopCount NXT instrument (Packard) and the data analyzed using GraphPad PRISM software.

S1P5 [2] = target: T2, S1P5 (Homo sapiens, UniProt Q9H228); test: as above; format: biochemical; parameters: expressed in transfected cells; membrane preparation; settings: [35S]GTPγS, CHO membranes, SPA
Description: as §1, §2
Target sequence in this assay (Q9H228 whole entry): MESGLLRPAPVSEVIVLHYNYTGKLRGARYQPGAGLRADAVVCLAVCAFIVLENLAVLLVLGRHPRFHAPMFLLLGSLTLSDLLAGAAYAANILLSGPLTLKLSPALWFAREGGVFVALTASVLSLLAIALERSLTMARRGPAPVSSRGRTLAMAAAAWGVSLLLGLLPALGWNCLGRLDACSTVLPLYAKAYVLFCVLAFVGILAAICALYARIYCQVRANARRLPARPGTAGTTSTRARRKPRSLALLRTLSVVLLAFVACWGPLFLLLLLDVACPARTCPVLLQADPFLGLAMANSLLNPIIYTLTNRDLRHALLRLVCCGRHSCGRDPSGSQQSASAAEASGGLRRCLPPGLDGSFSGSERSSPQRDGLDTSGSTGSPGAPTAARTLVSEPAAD

S1P3 [3] = target: T3, S1P3 (Homo sapiens, UniProt Q99500); test: as above; format: biochemical; parameters: expressed in transfected cells; membrane preparation; settings: [35S]GTPγS, CHO membranes, SPA
Description: as §1, §2
Target sequence in this assay (Q99500 whole entry): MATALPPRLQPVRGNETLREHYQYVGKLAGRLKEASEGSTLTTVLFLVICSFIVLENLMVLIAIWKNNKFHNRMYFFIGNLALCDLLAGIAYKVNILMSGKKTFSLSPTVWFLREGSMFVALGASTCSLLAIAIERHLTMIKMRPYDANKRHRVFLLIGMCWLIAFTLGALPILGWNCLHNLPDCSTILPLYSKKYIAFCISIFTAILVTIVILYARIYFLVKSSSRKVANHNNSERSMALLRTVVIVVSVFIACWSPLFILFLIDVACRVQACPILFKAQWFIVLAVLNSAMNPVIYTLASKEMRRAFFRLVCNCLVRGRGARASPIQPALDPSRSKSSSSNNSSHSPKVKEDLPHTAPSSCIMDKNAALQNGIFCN

S1P1 [4] = target: T4, S1P1 (Homo sapiens, UniProt P21453); test: as above; format: biochemical; parameters: expressed in transfected cells; membrane preparation; settings: [35S]GTPγS, CHO membranes, SPA
Description: as §1, §2
Target sequence in this assay (P21453 whole entry): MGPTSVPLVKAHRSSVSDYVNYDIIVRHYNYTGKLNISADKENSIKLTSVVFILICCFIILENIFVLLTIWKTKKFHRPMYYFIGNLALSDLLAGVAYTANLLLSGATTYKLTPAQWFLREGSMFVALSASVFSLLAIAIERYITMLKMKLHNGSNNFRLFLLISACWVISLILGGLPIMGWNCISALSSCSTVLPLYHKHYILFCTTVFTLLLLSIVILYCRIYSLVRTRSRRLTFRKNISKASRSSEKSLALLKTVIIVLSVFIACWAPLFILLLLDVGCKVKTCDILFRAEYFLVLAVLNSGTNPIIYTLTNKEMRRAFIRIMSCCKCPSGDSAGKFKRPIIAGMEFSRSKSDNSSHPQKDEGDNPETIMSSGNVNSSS

[5] = system: peripheral blood lymphocytes; test: Blood Lymphocyte Depletion assay in Lewis rats; format: in vivo; settings: intravenous
Description: Percent of Lymphocyte Depletion in Lewis Rats
The lymphocyte homing property may be measured in following Blood Lymphocyte Depletion assay:
A S1P receptor agonist or the vehicle is administered intravenously to rats. […] In this assay, the S1P receptor agonist depletes peripheral blood lymphocytes, e.g. by 50%, when administered at a dose of e.g. <20 mg/kg. Preferred S1P receptor agonists are further compounds which in addition to their S1P binding properties internalize/desensitize S1P receptors, thereby antagonizing inflammatory processes driven by lysophospholipids, including i.e. sphingosine 1-phosphate (S1P), sphingophosphorylcholine (SPC), lysophosphatidic acid (LPA), and others, on vasculature cells, e.g. endothelial cells. The internalization/desensitization capacity of compounds will be determined using CHO cells transfected with a human myc-tagged S1P receptor.

S1P5 [6] = target: T2, S1P5; settings: background statement; cited from earlier work
Target sequence in this assay (Q9H228 whole entry, species assumed): as the sequence (Q9H228 whole entry) above

S1P2 = S1P2 (Homo sapiens, UniProt O95136); settings: background statement; cited from earlier work
S1P2, sequence (O95136 whole entry, species assumed): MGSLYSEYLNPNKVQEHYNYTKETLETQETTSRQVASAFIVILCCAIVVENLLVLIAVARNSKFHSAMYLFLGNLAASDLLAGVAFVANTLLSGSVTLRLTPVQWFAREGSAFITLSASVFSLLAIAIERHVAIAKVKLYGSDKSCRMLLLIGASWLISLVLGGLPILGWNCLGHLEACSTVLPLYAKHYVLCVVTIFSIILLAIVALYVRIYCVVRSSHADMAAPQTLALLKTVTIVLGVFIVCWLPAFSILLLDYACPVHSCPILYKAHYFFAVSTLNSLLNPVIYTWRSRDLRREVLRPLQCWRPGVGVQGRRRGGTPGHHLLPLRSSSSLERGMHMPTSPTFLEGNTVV

S1P4 [7] = target: T1, S1P4; settings: background statement; cited from earlier work
S1P3 [8] = target: T3, S1P3; settings: background statement, about 10-fold lower affinity; cited from earlier work
Target sequence in this assay (Q99500 whole entry, species assumed): as the sequence (Q99500 whole entry) above

S1P1 [9] = target: T4, S1P1; settings: background statement; cited from earlier work
Target sequence in this assay (P21453 whole entry, species assumed): as the sequence (P21453 whole entry) above

Structure (SMILES) | EC50 (S1P4 [1]) [nM] | EC50 (S1P5 [2]) [nM] | EC50 (S1P3 [3]) [nM] | EC50 (S1P1 [4]) [nM] | Percent of Lymphocyte Depletion ([5]; 2 hours post treatment) [%] | Percent of Lymphocyte Depletion ([5]; 10 hours post treatment) [%] | Percent of Lymphocyte Depletion ([5]; 24 hours post treatment) [%] | also measured
NC(CO)(CCc1ccc(OCCCC/C=C/I)cc1)COP(=O)(O)O (racemic) [Example B, (R/S)-phosphoric acid mono-{2-amino-2-hydroxymethyl-4-[4-((E)-6-iodo-hex-5-enyloxy)-phenyl]-butyl}ester] | 0.84 | 0.62 | 1.2 | 0.69 |  |  |  | 
NC(CO)(CCc1ccc(OCCCC/C=C\I)cc1)COP(=O)(O)O (racemic) [Example D, (R/S)-phosphoric acid mono-{2-amino-2-hydroxymethyl-4-[4-((z)-6-iodo-hex-5-enyloxy)-phenyl]-butyl}ester] | 1.9 | 1.1 | 3 | 1.3 |  |  |  | 
C=C(I)CCCCOc1ccc(CCC(N)(CO)COP(=O)(O)O)cc1 (racemic) [Example F, (R/S)-Phosphoric acid mono-{2-amino-2-hydroxymethyl-4-[4-(5-iodo-hex-5-enyloxy)-phenyl]-butyl}ester] | 2.9 | 1.4 | 8.6 | 1.6 |  |  |  | 
C=C(I)CCCCOc1ccc(CCC(N)(CO)CO)cc1 [Example E, 2-Amino-2-{2-[4-(5-iodo-hex-5-enyloxy)-phenyl]-ethyl}-propane-1,3-diol HCl salt] |  |  |  |  | 64 | 82 | 80 | 
CCCCCCCCc1ccc(CCC(N)(CO)CO)cc1I [Example G, 2-Amino-2-[2-(3-iodo-4-octylphenyl)ethyl]-1,3-propandiol] |  |  |  |  | 51 | 88 | 87 | 
CCCCCCCCc1ccc(CCC(N)(CO)CO)c(I)c1 [Example H, 2-Amino-2-[2-(2-iodo-4-octylphenyl)ethyl]-1,3-propandiol] |  |  |  |  | 67 | 89 | 89 | 
CCCCCCCCc1ccc(CC[C@](N)(CO)COP(=O)(O)O)cc1I [Example J] | 4.9 | 2 | 84 | 0.17 |  |  |  | 
CCCCCCCCc1ccc(CC[C@](N)(CO)COP(=O)(O)O)c(I)c1 [Example K, Phosphoric acid mono-{(S)-2-amino-2-hydroxymethyl-4-[2-(2-iodo-4-octylphenyl)butyl]}ester] | 7.1 | 1.5 | 46 | 0.24 |  |  |  | 
CCCCCCCOc1ccc(CC[C@](N)(CO)COP(=O)(O)O)cc1I [Example L, Phosphoric acid mono-{(S)-2-amino-2-hydroxymethyl-4-[2-(3-iodo-4-(heptyloxy)phenyl)butyl]}ester] |  | 0.7 |  | 0.3 |  |  |  | 
CCCCCCCCc1ccc(CCC(N)(CO)CO)cc1 [FTY720, 2-amino-2-[2-(4-octylphenyl)ethyl]propane-1,3-diol] |  |  |  |  | 71 | 86 | 86 | affinity to S1P5 (S1P5 [6]): 0.3 nM; binding to S1P2 (S1P2): not; affinity to S1P4 (S1P4 [7]): 0.6 nM; affinity to S1P3 (S1P3 [8]): 3.1 nM; affinity to S1P1 (S1P1 [9]): 0.3 nM
